Assay in all cases: KinomeScan kinase panel, single concentration 10 µM
Holding throughout (assay type): binding

Assay [1] deals with T1, KinomeScan kinase panel (Homo sapiens, UniProt P50750).
T1 construct: purchased DiscoveRx (KinomeScan)
The note with it: CDK9, 10 µM; read-out: score (%).

Assay [2] addresses T2, KinomeScan kinase panel (Homo sapiens, UniProt P50613).
T2 construct: purchased DiscoveRx (KinomeScan)
The note with it: CDK7, 10 µM; read-out: score (%).

Assay [3] addresses T3, KinomeScan kinase panel (Homo sapiens, UniProt P41240).
T3 construct: purchased DiscoveRx (KinomeScan)
The note with it: CSK, 10 µM.

Assay [4] addresses T4, KinomeScan kinase panel (Homo sapiens, UniProt Q9H093).
T4 construct: purchased DiscoveRx (KinomeScan)
T4 sequence (Q9H093 1-628): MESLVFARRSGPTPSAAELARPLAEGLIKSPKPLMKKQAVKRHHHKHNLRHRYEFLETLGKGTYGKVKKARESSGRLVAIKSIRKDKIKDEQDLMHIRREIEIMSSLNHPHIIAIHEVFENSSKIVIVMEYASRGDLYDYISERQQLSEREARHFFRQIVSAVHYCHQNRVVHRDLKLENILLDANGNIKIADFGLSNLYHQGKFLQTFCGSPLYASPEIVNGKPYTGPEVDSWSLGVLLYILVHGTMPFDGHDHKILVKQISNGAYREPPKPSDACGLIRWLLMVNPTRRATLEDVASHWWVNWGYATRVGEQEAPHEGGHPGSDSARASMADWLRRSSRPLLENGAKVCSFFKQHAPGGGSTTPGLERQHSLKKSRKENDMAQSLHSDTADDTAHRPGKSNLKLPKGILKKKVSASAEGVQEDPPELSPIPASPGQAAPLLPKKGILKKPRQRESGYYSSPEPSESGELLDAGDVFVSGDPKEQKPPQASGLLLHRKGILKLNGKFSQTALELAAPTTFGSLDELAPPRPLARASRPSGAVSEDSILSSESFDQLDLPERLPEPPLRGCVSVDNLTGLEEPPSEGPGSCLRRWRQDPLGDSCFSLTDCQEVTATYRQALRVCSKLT
The note with it: 10 µM.

Assay [5] has as its target T5, KinomeScan kinase panel (Homo sapiens, UniProt Q32MK0).
T5 construct: purchased DiscoveRx (KinomeScan)
T5 sequence (Q32MK0 1-819): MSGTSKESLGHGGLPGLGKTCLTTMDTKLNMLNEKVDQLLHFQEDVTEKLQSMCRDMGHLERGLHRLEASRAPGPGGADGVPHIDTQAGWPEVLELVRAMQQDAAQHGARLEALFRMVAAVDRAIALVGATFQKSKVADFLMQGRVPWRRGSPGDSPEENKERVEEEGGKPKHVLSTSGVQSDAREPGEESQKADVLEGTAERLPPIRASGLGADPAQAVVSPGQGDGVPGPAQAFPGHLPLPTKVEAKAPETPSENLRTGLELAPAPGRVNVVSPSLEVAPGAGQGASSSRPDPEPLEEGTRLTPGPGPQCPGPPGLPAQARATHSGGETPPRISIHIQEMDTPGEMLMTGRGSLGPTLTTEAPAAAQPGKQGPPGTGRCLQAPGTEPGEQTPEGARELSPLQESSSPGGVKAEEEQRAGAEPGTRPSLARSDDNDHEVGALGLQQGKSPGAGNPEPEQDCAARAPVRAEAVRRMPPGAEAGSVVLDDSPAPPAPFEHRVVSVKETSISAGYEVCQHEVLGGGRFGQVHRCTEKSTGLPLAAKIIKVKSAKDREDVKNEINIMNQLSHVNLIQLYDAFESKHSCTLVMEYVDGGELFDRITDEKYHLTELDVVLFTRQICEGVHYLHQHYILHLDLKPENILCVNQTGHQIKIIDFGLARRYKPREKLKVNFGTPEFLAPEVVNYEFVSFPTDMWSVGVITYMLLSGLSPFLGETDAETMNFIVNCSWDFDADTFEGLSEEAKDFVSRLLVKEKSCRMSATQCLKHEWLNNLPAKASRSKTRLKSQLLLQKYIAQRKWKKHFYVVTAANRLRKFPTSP
The note with it: MLCK, 10 µM; read-out: score (%).

Assay [6] concerns the target T6, KinomeScan kinase panel (Homo sapiens, UniProt Q13554).
T6 construct: purchased DiscoveRx (KinomeScan)
The note with it: CAMK2B, 10 µM; read-out: score (%).

The target of assay [7] is T7, KinomeScan kinase panel (Homo sapiens, UniProt Q99759).
T7 construct: purchased DiscoveRx (KinomeScan)
T7 sequence (Q99759 1-626): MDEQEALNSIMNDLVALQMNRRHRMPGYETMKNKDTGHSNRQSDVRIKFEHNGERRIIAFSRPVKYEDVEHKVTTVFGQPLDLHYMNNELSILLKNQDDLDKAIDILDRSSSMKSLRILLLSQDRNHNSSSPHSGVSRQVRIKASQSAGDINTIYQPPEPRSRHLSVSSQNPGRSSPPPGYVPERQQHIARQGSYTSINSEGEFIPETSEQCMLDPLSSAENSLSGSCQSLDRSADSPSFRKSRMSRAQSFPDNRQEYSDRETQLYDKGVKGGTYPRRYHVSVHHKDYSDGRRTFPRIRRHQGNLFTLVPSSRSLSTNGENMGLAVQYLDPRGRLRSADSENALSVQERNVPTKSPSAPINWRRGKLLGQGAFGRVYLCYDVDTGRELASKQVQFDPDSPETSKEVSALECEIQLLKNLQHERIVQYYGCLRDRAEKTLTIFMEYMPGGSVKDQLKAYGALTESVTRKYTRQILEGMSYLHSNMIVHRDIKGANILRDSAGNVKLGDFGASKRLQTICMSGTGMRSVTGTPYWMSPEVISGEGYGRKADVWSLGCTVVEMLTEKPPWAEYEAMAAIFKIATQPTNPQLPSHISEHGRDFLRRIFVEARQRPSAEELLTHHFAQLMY
The note with it: MAP3K3, 10 µM; read-out: score (%).

The target in assay [8] is T8, KinomeScan kinase panel (Homo sapiens, UniProt Q92918).
T8 construct: purchased DiscoveRx (KinomeScan)
The note with it: read-out: score (%).

For assay [9], the target named is T9, KinomeScan kinase panel (Homo sapiens, UniProt Q9P286).
T9 construct: purchased DiscoveRx (KinomeScan)
The note with it: read-out: score (%).

Assay [10] deals with T10, KinomeScan kinase panel (Homo sapiens, UniProt Q9Y6E0).
T10 construct: purchased DiscoveRx (KinomeScan)
The note with it: MST3, 10 µM.

Like-named read-outs stand apart in the source and are kept apart here.

T2 sequence (P50613 whole entry): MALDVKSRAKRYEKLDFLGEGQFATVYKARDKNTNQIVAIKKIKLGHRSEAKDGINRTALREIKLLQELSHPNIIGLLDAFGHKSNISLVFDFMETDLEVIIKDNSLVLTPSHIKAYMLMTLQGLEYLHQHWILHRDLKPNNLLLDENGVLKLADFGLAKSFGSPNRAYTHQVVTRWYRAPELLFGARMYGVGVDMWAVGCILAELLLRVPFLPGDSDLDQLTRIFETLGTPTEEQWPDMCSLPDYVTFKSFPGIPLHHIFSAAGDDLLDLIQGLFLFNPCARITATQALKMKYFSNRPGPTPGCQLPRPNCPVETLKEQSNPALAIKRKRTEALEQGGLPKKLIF
T9 sequence (Q9P286 whole entry): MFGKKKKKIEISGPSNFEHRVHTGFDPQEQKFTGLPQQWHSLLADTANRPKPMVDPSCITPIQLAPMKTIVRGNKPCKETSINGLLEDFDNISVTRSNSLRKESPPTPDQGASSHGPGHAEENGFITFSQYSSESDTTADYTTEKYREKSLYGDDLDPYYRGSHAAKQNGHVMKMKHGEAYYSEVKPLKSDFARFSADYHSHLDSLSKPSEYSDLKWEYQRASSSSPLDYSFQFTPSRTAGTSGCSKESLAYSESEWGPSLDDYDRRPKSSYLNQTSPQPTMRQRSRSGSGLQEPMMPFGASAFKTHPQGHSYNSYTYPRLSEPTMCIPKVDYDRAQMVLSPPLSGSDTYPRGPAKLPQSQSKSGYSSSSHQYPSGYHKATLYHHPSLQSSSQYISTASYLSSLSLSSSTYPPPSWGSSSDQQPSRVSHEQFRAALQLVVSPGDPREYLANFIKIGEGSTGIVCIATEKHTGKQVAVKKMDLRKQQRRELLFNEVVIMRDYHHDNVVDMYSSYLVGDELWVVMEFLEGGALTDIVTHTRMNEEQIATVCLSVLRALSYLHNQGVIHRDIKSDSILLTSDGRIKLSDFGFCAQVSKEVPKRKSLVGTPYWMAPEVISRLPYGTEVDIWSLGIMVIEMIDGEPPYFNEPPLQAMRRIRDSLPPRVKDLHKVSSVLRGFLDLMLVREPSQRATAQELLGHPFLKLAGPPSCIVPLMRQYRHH
T3 sequence (P41240 whole entry): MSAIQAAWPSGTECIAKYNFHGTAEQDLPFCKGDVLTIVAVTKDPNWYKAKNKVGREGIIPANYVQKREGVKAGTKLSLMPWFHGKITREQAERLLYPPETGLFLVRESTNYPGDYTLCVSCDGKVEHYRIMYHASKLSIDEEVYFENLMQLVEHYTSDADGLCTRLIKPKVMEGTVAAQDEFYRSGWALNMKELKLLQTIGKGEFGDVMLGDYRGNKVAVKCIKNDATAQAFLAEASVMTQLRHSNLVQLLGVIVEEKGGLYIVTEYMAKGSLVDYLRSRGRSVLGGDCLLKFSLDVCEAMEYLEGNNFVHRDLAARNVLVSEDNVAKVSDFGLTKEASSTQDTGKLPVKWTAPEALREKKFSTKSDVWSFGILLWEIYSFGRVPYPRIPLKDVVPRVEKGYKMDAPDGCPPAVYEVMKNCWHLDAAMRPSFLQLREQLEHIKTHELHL
T1 sequence (P50750 whole entry): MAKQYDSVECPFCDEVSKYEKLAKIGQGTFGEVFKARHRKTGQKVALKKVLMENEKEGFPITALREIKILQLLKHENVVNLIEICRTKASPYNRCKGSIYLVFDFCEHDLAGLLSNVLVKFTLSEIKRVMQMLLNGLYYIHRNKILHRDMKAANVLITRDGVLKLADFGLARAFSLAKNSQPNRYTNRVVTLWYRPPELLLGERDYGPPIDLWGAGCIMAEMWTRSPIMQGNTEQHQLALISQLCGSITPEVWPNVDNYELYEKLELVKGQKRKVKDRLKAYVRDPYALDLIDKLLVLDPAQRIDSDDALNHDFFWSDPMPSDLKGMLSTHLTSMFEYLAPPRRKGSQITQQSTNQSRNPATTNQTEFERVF
T10 sequence (Q9Y6E0 whole entry): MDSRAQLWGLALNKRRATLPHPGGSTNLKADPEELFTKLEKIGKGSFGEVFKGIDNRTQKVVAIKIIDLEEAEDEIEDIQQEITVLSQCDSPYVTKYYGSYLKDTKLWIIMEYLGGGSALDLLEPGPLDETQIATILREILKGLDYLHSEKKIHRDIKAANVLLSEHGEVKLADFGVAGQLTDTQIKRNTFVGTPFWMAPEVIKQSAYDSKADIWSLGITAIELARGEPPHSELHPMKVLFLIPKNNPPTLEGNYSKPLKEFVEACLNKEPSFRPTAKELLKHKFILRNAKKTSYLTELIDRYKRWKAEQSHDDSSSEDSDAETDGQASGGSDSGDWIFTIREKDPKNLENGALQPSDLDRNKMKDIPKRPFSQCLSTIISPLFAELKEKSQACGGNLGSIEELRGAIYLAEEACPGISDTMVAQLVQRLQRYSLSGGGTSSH
T6 sequence (Q13554 whole entry): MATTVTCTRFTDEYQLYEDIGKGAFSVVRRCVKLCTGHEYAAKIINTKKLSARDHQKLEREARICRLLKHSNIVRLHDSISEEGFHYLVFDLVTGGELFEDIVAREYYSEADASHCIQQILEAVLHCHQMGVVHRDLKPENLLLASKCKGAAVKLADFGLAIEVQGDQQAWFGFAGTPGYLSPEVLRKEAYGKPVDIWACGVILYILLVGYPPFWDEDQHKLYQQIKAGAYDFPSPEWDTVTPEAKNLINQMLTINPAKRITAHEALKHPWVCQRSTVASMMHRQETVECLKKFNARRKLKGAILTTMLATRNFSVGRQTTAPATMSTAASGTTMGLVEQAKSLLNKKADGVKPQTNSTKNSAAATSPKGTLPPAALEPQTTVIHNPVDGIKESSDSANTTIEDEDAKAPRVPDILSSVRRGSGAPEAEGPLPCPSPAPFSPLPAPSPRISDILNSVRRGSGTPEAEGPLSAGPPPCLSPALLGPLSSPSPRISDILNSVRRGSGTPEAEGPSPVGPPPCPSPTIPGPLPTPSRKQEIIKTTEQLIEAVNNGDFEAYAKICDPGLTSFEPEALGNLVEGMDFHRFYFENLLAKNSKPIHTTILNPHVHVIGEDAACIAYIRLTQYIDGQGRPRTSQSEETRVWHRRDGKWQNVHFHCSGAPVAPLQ
T8 sequence (Q92918 whole entry): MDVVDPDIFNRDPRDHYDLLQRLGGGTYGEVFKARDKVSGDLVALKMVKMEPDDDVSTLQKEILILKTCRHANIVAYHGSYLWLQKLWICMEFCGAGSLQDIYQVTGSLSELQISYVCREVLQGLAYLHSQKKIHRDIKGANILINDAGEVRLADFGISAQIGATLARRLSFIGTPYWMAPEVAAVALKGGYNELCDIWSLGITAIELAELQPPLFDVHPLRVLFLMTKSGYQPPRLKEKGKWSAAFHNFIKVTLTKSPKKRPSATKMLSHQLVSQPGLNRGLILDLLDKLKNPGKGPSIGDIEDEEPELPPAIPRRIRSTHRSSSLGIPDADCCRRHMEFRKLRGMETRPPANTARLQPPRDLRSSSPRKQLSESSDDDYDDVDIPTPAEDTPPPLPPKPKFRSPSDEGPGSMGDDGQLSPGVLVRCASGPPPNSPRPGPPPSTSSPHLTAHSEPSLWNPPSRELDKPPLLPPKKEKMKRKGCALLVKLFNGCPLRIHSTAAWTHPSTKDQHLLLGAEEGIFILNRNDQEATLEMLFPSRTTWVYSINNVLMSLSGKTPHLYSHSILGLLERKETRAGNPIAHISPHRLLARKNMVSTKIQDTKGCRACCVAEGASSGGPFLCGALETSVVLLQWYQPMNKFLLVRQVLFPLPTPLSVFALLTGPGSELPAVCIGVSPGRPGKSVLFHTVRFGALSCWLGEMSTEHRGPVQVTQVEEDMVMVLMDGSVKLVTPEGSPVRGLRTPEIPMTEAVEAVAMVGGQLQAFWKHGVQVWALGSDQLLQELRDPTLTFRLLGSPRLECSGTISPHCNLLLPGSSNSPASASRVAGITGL

Turning to `CCN1CCN(Cc2ccc(NC(=O)c3ccc(C)c(NC(=O)c4cncc(-c5cccs5)c4)c3)cc2C(F)(F)F)CC1` [ALW-II-41-27], the remaining binding at 10 µM at KinomeScan kinase panel [1] is > 30%; at KinomeScan kinase panel [2], 26%; on KinomeScan kinase panel [5], > 30%; on KinomeScan kinase panel [6] it was > 30%; at KinomeScan kinase panel [7] it was 0.25%; on KinomeScan kinase panel [8] (HPK1, 10 µM) it was 0.75%. The remaining binding at 10 µM on KinomeScan kinase panel [9] (PAK7, 10 µM) was > 30%. In addition, the “score (%)” value at KinomeScan kinase panel [3] is 0.65%; at KinomeScan kinase panel [4] (kinase SNARK) it was “nb (Hits values higher than 30% were considered negative (no binding: nb))”; on KinomeScan kinase panel [10] it was “nb (Hits values higher than 30% were considered negative (no binding: nb))”.

As to `CCN1CCN(Cc2ccc(NC(=O)c3ccc(C)c(/C=C/c4cnc5[nH]ccc5c4Cl)c3)cc2C(F)(F)F)CC1` [HG-6-63-01, (E)-3-(2-(4-chloro-1H-pyrrolo[2,3-b]pyridin-5-yl)vinyl)-N-(4-((4-ethylpiperazin-1-yl)methyl)-3-(trifluoromethyl)phenyl)-4-methylbenzamide], the remaining binding at 10 µM was > 30% on KinomeScan kinase panel [1]; > 30% at KinomeScan kinase panel [2]; 5.9% on KinomeScan kinase panel [5]; > 30% at KinomeScan kinase panel [6]; 4% at KinomeScan kinase panel [7]; 0.1% at KinomeScan kinase panel [8] (MAP4K1, 10 µM). The remaining binding at 10 µM on KinomeScan kinase panel [9] (PAK7/PAK5, 10 µM) is > 30%. Moreover, the “score (%)” value on KinomeScan kinase panel [3] is 2.1%; on KinomeScan kinase panel [4] (SNARK), “nb (Hits values higher than 30% were considered negative (no binding: nb))”; at KinomeScan kinase panel [10] it was “nb (Hits values higher than 30% were considered negative (no binding: nb))”.

Turning to `CCN1CCN(Cc2ccc(NC(=O)c3ccc(C)c(C#Cc4cccnc4)c3)cc2C(F)(F)F)CC1` [XMD15-44], the remaining binding at 10 µM on KinomeScan kinase panel [1] was > 30%; at KinomeScan kinase panel [2], 1.6%; at KinomeScan kinase panel [5], > 30%; at KinomeScan kinase panel [6] it was > 30%; at KinomeScan kinase panel [7], 1.4%; on KinomeScan kinase panel [8] (HPK1, 10 µM) it was 0.4%. In addition, the remaining binding at 10 µM on KinomeScan kinase panel [9] (PAK7, 10 µM) came to 83%. Also, the entries for the “score (%)” value on KinomeScan kinase panel [3], at KinomeScan kinase panel [4] (kinase SNARK) and on KinomeScan kinase panel [10] were 0.15%, 99% and 2.8%, respectively.
